Test results from US20040038950A1, “Pharmaceutical composition for treating IL-1 related diseases or disorders” (priority 2002, published 2004).

Legend:
type I collagen mRNA = experiment: RT-PCR of type I collagen mRNA in chondrocytes; assay type: cell-based, human; conditions: 100 μM
Description: (§1) Chondrocytes were isolated from the knee joint of patient undergoing a knee replacement due to osteoarthritis. Cartilage was digested with 0.2% protease Type XIV (Sigma) for 1 hour, followed by 3-hour incubation with 0.2% collagenase Type IA (Sigma) at 37° C. Following the incubation, the undigested cartilage fragments were removed using a 70 μm Nylon sieve. Chondrocytes were washed with DPBS and maintained in monolayer culture for 7 days in Dulbecco's modified Eagle's medium (DMEM; Life Technologies Inc.) which contained 10% fetal bovine serum (FBS; Life Technologies), 100 units/ml penicillin-streptomycin (Life Technologies) and 25 μg/ml L-ascorbic acid (Sigma). All experiments were performed with primary or first passage cells. The preparation of chondrocytes in alginate beads was carried out with 4×10^6 cells per 1 ml of alginate. Alginate cultures were maintained for 7 days at 37° C., 5% CO2 and 95% humidity and incubated with various concentrations of DHEA (0, 10, 50 or 100 μM) for a varing period of time. DHEA was purchased from Sigma and used after dissolving either in ethanol or dimethyl sulfoxide (DMSO). After a desired incubation period, cells were harvested by solubilizing the alginate beads in citrate buffer (55 mM sodium citrate, 0.15 M NaCl, pH 7.0) for 10 min at 37° C. and by centrifugation (300 g, 5 min).
(§2) Total RNA from chondrocytes was extracted using RNeasy Mini Kit (QIAGEN). Reverse transcription from 1 μg of total RNA was conducted using First Strand cDNA Synthesis Kit (MBI Fermentas) according to manufacturer's recommendation with random hexamers. […] All reactions were determined to be in the linear range of amplification with the cycle number ranging from 14 to 30. The PCR products were analyzed by separation on a 2% agarose gel followed by ethidium bromide staining. Following electrophoresis, photographs were taken and analyzed using a densitometric program (TINA; Raytest Isotopenmeβgerate, Germany). […] After normalizing with respect to GAPDH, percentage increase or decrease was determined. […]

[1] = tested on: (IL-1β)-induced MMP-1 mRNA; experiment: (IL-1β)-induced MMP-1 mRNA expression in chondrocytes, RT-PCR; assay type: cell-based, human; conditions: 72 hr
Description: (§3) Sixteen hours prior to a treatment, the complete culture medium was replaced with a serum-free medium. Chondrocyte alginate bead cultures were then treated with IL-1β ([…], (Calbiochem) and DHEA (0, 10, 50 or 100 μM) for 3 days.
(§4) Total RNA from chondrocytes was extracted using RNeasy Mini Kit (QIAGEN). Reverse transcription from 1 μg of total RNA was conducted using First Strand cDNA Synthesis Kit (MBI Fermentas) according to manufacturer's recommendation with random hexamers. The resulting cDNA was then amplified by polymerase chain reaction using AccuPower PCR Premix (Bioneer, Korea) in a final volume of 20 μl using three thermocycler temperatures (30 sec at […], 30 sec at 60° C., and 30 sec at […]). All reactions were determined to be in the linear range of amplification with the cycle number ranging from 14 to 30. The PCR products were analyzed by separation on a 2% agarose gel followed by ethidium bromide staining. Following electrophoresis, photographs were taken and analyzed using a densitometric program (TINA; Raytest Isotopenmeβgerate, Germany). Integrated density values for the genes in question were then normalized to the glyceraldehyde-3-phosphate dehydrogenase (GAPDH) values for a semiquantitative assessment. After normalizing with respect to GAPDH, percentage increase or decrease was determined. Each experiment was repeated at least three times. […]

[2] = tested on: (IL-1β)-induced Cox-2 gene expression; experiment: (IL-1β)-induced Cox-2 gene expression in chondrocytes; assay type: cell-based, human; conditions: 10, 50, 100 μM with IL-1β, 72 hr
Description: as §3, §4

[3] = tested on: patients diagnosed to have degenerative arthritis; experiment: Topical application of DHEA to arthritic patient; assay type: in vivo, human; conditions: for resting pain score: before 14.34; for joint effusion score: before 2.12; for medial joint line tenderness score: before 2.18; for motion pain score: before 8.11; for pain at ascending/descending stairs score: before 10.87
Description: Ten patients diagnosed to have degenerative arthritis were tested to investigate the therapeutic effect of DHEA in topical application. Testees had the symptoms including dolor of knee joint (resting or motion pain), swelling, deformation, tenderness, crepitation or stiffness of joint. Patients who had received intraarticular injection, steroid treatment or surgery within 1 month before this test were excluded, as well as those who had severe cardiac or liver diseases, kidney failure, gastrointestinal diseases, or poor systemic condition such as anomalotrophy. Besides, women who were pregnant or breast-feeding babies were excluded in this study.
The volunteers were randomly grouped into Group I and Group II, and subject to the experiment for topical application of DHEA. A portion of knee joint showing dolor symptom was coated with either 5% DHEA or PBS (phosphate buffered saline) twice a day for 1 month. Any alteration of symptom was checked prior to the application, 1 week and then again 1 month during the application regimen.
The severity of pain was scored ranging from 0 (most severe pain) to 20 points (no pain) at an interval of 5 points.
In addition, both joint effusion and medial joint-line tenderness were recorded during a physical test administered by a doctor based on the point rating scale: highness, 4; medium, 3; slightness, 2; and not found, 0.
The opinions on symptom were recorded as 5 categories relying on the subjective opinions of patients and the opinions of doctors regarding both dolor of patients and the results of physical tests: superiority, goodness, mediocrity, poorness and exceeding poorness.
In addition, the assessment regarding the level of improvement on symptoms was recorded in accordance with the following criteria: 3-step improvement, “exceeding improvement”; 2-step improvement, “improvement”; 1-step improvement, “slight improvement”; “no change”; and “aggravation”.

type II collagen mRNA = experiment: RT-PCR of type II collagen mRNA in chondrocytes; assay type: cell-based, human; conditions: for type II collagen gene up-regulation, enhancement: 72 hours
Description: as §1, §2

[4] = tested on: (IL-1β)-induced IL-6 gene expression; experiment: (IL-1β)-induced IL-6 gene expression in chondrocytes; assay type: cell-based, human; conditions: 10, 50, 100 μM with IL-1β, 72 hr
Description: as §3, §4

[5] = Group I (5 patients), 1 month after application
[6] = Group I, topical, 1 month after application
[7] = Group I, topical, 1 week after application
[8] = Group I, topical, 1 week and 1 month vs before application

## C[C@]12CC[C@H](O)CC1=CC[C@@H]1[C@@H]2CC[C@]2(C)C(=O)CC[C@@H]12 [DHEA, dehyroepiandrosterone]
Type I collagen mRNA; 72 hours
  type I collagen mRNA, maximal inhibition: 28%
Type I collagen mRNA; after 24-72 hr of culture
  type I collagen production, reduced by: less than 50%
Type I collagen mRNA; after 72 hr
  type I collagen mRNA expression: markly inhibited
[1]; 10 μM DHEA with IL-1β
  (IL-1β)-induced up-regulation of MMP-1 mRNA, inhibition: 74%
[1]; 50 μM DHEA with IL-1β
  (IL-1β)-induced up-regulation of MMP-1 mRNA, inhibition: 53%
[2]
  (IL-1β)-induced Cox-2 gene expression: no significantly change
[3]; [5]
  opinion of doctor: no change: 4 persons
  opinion of doctor: slight improvement: 1 person
  opinion of patient: aggravation: 1 person
  opinion of patient: no change: 3 persons
  opinion of patient: slight improvement: 1 person
[3]; Group I, topical 5% DHEA twice a day, 1 week after application
  resting pain score: 15.29 points
[3]; [6]
  joint effusion score: 2.27 points
  medial joint line tenderness score: 2.54 points
  motion pain score: 8.51 points
  pain at ascending/descending stairs score: 10.49 points
  resting pain score: 15.02 points
[3]; [7]
  joint effusion score: 1.98 points
  medial joint line tenderness score: 2.11 points
  motion pain score: 8.34 points
  pain at ascending/descending stairs score: 10.11 points
[3]; [8]
  change of joint effusion: not a significant change
  change of medial joint line tenderness: not a significant change
  change of motion pain: not a significant change
  change of pain at ascending/descending stairs: not a significant change
  change of resting pain: not a significant change
Type II collagen mRNA; 50 μM
  type II collagen gene up-regulation, enhancement: 132%
Type II collagen mRNA; 100 μM
  type II collagen gene up-regulation, enhancement: 146%
Type II collagen mRNA; Homo sapiens, Chondrocyte, 100 μM, after 48 hr, read-out: type II collagen mRNA level, maximal stimulation
  Emax at 100 µM: 276%
[4]
  (IL-1β)-induced IL-6 gene expression: no significantly change
